Assay results taken from patent publication US8283324B2, “Immunomodulatory and anti-tumour peptides” (Centro de Ingenieria Genetica y Biotecnologia, priority 2006, dated 2012).

What was measured:
[1] = competition ELISA for LPS-binding capacity; design: species or system E. coli; conditions: competition with biotinylated LALF32-51 at 0.2 μM; analogous peptides 10 μM to 0.01 μM; FIG. 1A
Method: This assay consists on a competition ELISA system (Hardy E., et al (1994) Enhanced ELISA sensitivity using TCA for efficient coating of biologically active LPS or Lipid A to the solid phase. J. Immunol. Meth. Vol. 176:111-116). Polystyrene plates (Costar, USA) were coated with LPS from E. coli 0111:B4 (1 μg/ml) with 0.2% trichloroacetic acid (TCA). Plates were incubated overnight at 37° C. and further washed ten times with 1× phosphate-buffered saline (1×PBS) plus 0.1% tween-20 (washing solution). The binding of analogous peptides to the LPS fixed to the solid surface was evaluated by a competition ELISA with the biotinylated LALF32-51 peptide at 0.2 μM, obtaining a 90% of maximum LPS binding. To estimate the inhibition curves, different concentrations of the analogous peptides were used, from 10 μM to 0.01 μM and the curve of the LALF32-51 peptide as experimental control. The biotinylated LALF32-51 was incubated in the presence of the analogous peptides for 2 h at 37° C. and plates were washed 5 times after that time with washing solution. The biotinylated LALF32-51 bound to LPS was detected by incubating for 45 min at 37° C. with a streptavidin-peroxidase conjugate at a 1:2,000 dilution. Plates were washed 5 times with washing solution and the substrate solution was added (0.05 M citrate-phosphate buffer, pH 5.5, 1 tablet of 3,3′,5,5′-tetramethylbenzidine and 0.025% hydrogen peroxide). After 15 min incubation, the reaction was stopped by adding 2 M sulphuric acid. The absorbance was quantified at 450 nm in a plate reader (Sensident Scan). There is a correlation between optical density values and the LPS-binding capacity of analogous peptides. Analogous peptides with higher LPS-binding capacity show inhibition curves of lower O.D. compared to the inhibition curve of the LALF32-51 peptide.
Analogous peptides with lower LPS-binding capacity present inhibition curves with […], compared to the inhibition curve of the LALF32-51 peptide.
FIG. 1B represents the inhibition percentages of analogous peptides, at a fixed […] concentration, according to their capacity to displace the binding of the biotinylated LALF32-51 (0.2 μM) to LPS adsorbed to the solid surface. % de inhibición={1−(([O.D.]sample−[O.D.]min)/([O.D.]max−[O.D.]min))}×100 [O.D.] sample: Optical density value in the presence of a fixed concentration of analogous peptides; [O.D.] min: ELISA background; [O.D.] max: Optical density value without analogous peptides.

TC-1 tumor cells = assay: anti-tumoral effect in the TC-1 tumor model; assay type: in vivo; conditions: 4 mg per kg s.c.; for survival of mice / tumor progression (tumor mass): at 100 mm^3 tumor volume and after 10 days, FIG. 4; for survival of animals compared to the LALF32-51 peptide: Log Rank, *p<0.05
Method: Eight-to-ten weeks-old C57BI/6 female mice were used for this assay (n=10 animals per experimental group). For tumor graft, TC-1 tumor cells derived from C57BI/6 malignant epithelial lung cells were used, being resuspended in phosphate-buffered saline (PBS). An amount of 50,000 cells in a 200 μl volume was inoculated to mice by subcutaneous route in the right hind limb. The first peptide administration was carried out by subcutaneous route in the right flank once tumor reached a 100 mm^3 volume, and the second was carried out after 10 days. In this assay, a 4 mg per kg of weight dose was evaluated (80 μg/mice). Animal survival and tumor mass were the parameters evaluated to measure the anti-tumoral effect peptides of interest, as shown in FIGS. 4A and 4B. […] The Log Rank method was used as statistical analysis for detecting significant differences between groups.

IFN-α gene = IFN-α gene expression in human mononuclear cells (RT-PCR); assay type: cell-based; conditions: 40 μg/ml, 18 h; for expression of the IFN-α gene compared to the LALF32-51 peptide: FIG. 3B; for expression of the IFN-α gene: mRNA normalized against β-actin, FIG. 3A
Method: (§1) For this assay, human mononuclear cells were isolated by a Ficoll-Hypaque gradient from a leukocyte concentrate or “Buffy Coat” of a donor. Up to 5×10^6 were seeded in 24-well plates in RPMI 1640 medium supplemented with 10% calf fetal serum. Each peptide was further added at 40 μg/ml in a 0.1 ml volume of RPMI medium and cells were cultured for 18 h at 37° C. and 5% of CO2. Total RNA was extracted by using the TriReagent method. Afterwards, the expressions of IFN-α, IFN-γ and IL-12 genes were determined by the reverse transcription reaction and PCR amplification (RT-PCR kit, Perkin Elmer). Results are shown as relative amounts of messenger RNA normalized against expression levels of the β-actin housekeeping gene.

IL-12 gene = IL-12 gene expression in human mononuclear cells (RT-PCR); assay type: cell-based; conditions: 40 μg/ml, 18 h; mRNA normalized against β-actin; FIG. 3A
Method: as §1

IFN-γ gene = IFN-γ gene expression in human mononuclear cells (RT-PCR); assay type: cell-based; conditions: 40 μg/ml, 18 h; mRNA normalized against β-actin; FIG. 3A
Method: as §1

[2] = competition ELISA for heparin-binding capacity; conditions: for heparin binding: peptides at 2 μM with 250 units of heparin, FIG. 2
Method: This assay consists on a competition ELISA system, similar to the previously described one. The biotinylated LALF32-51 peptide was adsorbed to polystyrene plates (Costar, USA) in 1×PBS and incubated overnight at 4° C. Analogous peptides L-2, L-8, L-12 and L-20 were mixed at 2 μM with 250 units of heparin (Sodic Heparin, 5,000 U/ml, Liorad) in 1×PBS plus 0.1% of bovine serum albumin (BSA). Afterwards, mixes were added to an ELISA plate containing 0.02 μM of the biotinylated LALF32-51 peptide adsorbed to the solid surface. After a 1 h-incubation at room temperature, plates were washed five times with washing solution and the biotinylated LALF32-51 peptide fixed to the solid surface was detected by incubating for 45 min at 37° C. with streptavidin-peroxidase conjugate at a 1:2,000. Afterwards, plates were washed five times with washing solution and the substrate solution was added. After an additional incubation for 15 min, the reactions were stopped with 2 M sulphuric acid solution. The lack of heparin binding to the analogous peptides correlates with the […] optical density, because they are unable to displace the heparin bound to the biotinylated LALF32-51 peptide adsorb to the solid surface. The unlabeled LALF32-51 peptide at a 100× molar excess was used as control of the assay.

| Sequence | LPS-binding capacity [1] | survival of mice (TC-1 tumor cells) | tumor progression (tumor mass) (TC-1 tumor cells) | survival of animals compared to the LALF32-51 peptide (TC-1 tumor cells) | expression of the IFN-α gene compared to the LALF32-51 peptide (IFN-α gene) | expression of the IFN-α gene (IFN-α gene) | expression of the IL-12 gene (IL-12 gene) | expression of the IFN-γ gene (IFN-γ gene) | heparin binding [2] | heparin binding (assay control) ([2]; unlabeled peptide at a 100× molar excess) |
| --- | --- | --- | --- | --- | --- | --- | --- | --- | --- | --- |
| HYAIKPTFRRLKWKYKGKFW [Peptide L-3, alanine-substituted analogue of LALF 32-51] | higher LPS binding capacity |  |  |  |  |  |  |  |  |  |
| HYRIKPTARRLKWKYKGKFW [Peptide L-8, alanine-substituted analogue of LALF 32-51] | lose the capacity to bind LPS | prolonging survival of mice | effective for inhibiting tumor progression | significantly increase the survival of animals | more effective | capable of inducing the expression | capable of inducing the expression | capable of inducing the expression | unable to bind heparin |  |
| HYRIKPTFRRLKWKYKGKFA [Peptide L-20, alanine-substituted analogue of LALF 32-51] | lose the capacity to bind LPS | prolonging survival of mice | effective for inhibiting tumor progression | significantly increase the survival of animals |  | capable of inducing the expression | capable of inducing the expression | capable of inducing the expression | unable to bind heparin |  |
| HYRIKPTFRRLKWKYKGKAW [Peptide L-19, alanine-substituted analogue of LALF 32-51] | retaining that capacity |  |  |  |  |  |  |  |  |  |
| HYRIKPTFRRLAWKYKGKFW [Peptide L-12, alanine-substituted analogue of LALF 32-51] | lose the capacity to bind LPS | prolonging survival of mice | effective for inhibiting tumor progression | significantly increase the survival of animals | more effective | capable of inducing the expression | capable of inducing the expression | capable of inducing the expression | unable to bind heparin |  |
| HYRIKPTFARLKWKYKGKFW [Peptide L-9, alanine-substituted analogue of LALF 32-51] | retaining that capacity |  |  |  |  |  |  |  |  |  |
| HYRIKPTFRRLKWKYKGKFW [LALF32-51, reference compound] |  |  |  |  |  |  |  |  |  | binding to heparin |
